Key:
[1] = biological target: T1, adenosine A-2 receptors (Rattus norvegicus, UniProt P30543); test: Test for affinity for brain adenosine A-2 receptors ([3H]NECA competition, striatal membranes); assay type: binding; conditions: rat brain striatum membranes, [3H]NECA 94 nM, 25°C, 60 minutes; read-out: A-2 Receptor Ki
T1 construct: from tissue; host or cells: rat brain striatum membranes (young male C-D strain rats, Charles River)
Description: Membranes for ligand binding are isolated from rat brain striatum. The tissue is homogenized in 20 vol. ice-cold 50 mM Tris-HCl buffer (pH 7.7) using a polytron (setting for 6 to 20 seconds). The homogenate is centrifuged at 50,000 x g for 10 minutes at 4°C. The pellet is again homogenized in a polytron in 20 vol. of buffer, and centrifuged as before. The pellet is finally resuspended in 40 vol. of 50 mM Tris-HCl (pH 7.7) per gram of original wet weight of tissue.
Incubations are carried out at 25°C for 60 minutes. Each tube is filtered through GF/B glass fiber filters using a vacuum. The filters are rinsed two times with 5 ml of the ice-cold buffer. […] The filters are counted by liquid scintillation spectrometry.
Specific binding of [3H]NECA is measured as the excess over blank runs in the presence of 100 µM 2-chloroadenosine. Total membrane-bound radioactivity is about 2.5% of that added to the test tubes. […] Specific binding to membranes is about 50% of the total bound.

[2] = biological target: T2, adenosine A-1 receptor (Rattus norvegicus, UniProt P25099); test: biochemical
T2 sequence (P25099 1-326): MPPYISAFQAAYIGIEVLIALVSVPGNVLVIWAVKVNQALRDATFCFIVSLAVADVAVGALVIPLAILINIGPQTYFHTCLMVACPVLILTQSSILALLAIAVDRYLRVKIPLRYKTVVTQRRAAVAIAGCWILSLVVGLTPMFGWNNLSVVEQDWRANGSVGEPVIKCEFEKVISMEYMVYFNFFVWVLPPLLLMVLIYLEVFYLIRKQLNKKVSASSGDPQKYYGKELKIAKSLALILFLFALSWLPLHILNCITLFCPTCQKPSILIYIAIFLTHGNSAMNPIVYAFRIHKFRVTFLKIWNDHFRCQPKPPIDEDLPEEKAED

[3] = biological target: A-2 receptors; conditions: brain slice assay; cited from earlier work
[4] = tested on: adenosine receptors; conditions: in vivo; cited from earlier work

T1 sequence (P30543 whole entry): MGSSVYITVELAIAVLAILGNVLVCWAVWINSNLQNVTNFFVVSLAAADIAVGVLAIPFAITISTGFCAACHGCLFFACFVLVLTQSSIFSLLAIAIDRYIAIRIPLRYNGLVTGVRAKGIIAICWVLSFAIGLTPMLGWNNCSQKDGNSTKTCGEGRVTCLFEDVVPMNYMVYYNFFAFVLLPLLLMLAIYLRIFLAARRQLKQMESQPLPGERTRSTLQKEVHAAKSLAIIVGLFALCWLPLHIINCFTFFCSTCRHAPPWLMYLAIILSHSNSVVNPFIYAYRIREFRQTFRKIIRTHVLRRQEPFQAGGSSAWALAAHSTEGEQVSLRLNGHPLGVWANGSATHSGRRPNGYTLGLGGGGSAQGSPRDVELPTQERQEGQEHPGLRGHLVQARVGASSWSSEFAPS

Row | Compound | Ki [1] [µM] | Ki [2] [µM] | Ki [3] [µM] | potency in antagonizing the effects of adenosine analogs on heart rate versus blood pressure [4]
1 | CCCOC1=Nc2c(cnn2-c2ccccc2)C2=N[C@H](Cc3ccccc3)CN12 [Compound 1, (R)-2,7-dihydro-7-phenyl-2-(phenylmethyl)-5-propoxy-3H-imidazo[1,2-c]pyrazolo[4,3-e]pyrimidine] | > 6.99 | 1.24 |  | 
2 | CCCOC1=Nc2c(cnn2-c2ccccc2)C2=N[C@@H](Cc3ccccc3)CN12 [Compound 2, (S)-2,7-dihydro-7-phenyl-2-(phenylmethyl)-5-propoxy-3H-imidazo[1,2-c]pyrazolo[4,3-e]pyrimidine] | 0.508 | 2.68 |  | 
3 | C1=Nc2c(cnn2-c2ccccc2)C2=N[C@H](Cc3ccccc3)CN12 [Compound 3, (R)-2,7-dihydro-7-phenyl-2-(phenylmethyl)-3H-imidazo[1,2-c]pyrazolo[4,3-e]pyrimidine] | 25 | 1.9 |  | 
4 | C1=Nc2c(cnn2-c2ccccc2)C2=N[C@@H](Cc3ccccc3)CN12 [Compound 4, (S)-2,7-dihydro-7-phenyl-2-(phenylmethyl)-3H-imidazo[1,2-c]pyrazolo[4,3-e]pyrimidine] | > 199 | 10 |  | 
5 | C1=Nc2c(ncn2-c2ccccc2)C2=N[C@@H](Cc3ccccc3)CN12 [Compound 5, (S)-7,8-dihydro-3-phenyl-8-(phenylmethyl)-3H-diimidazo[1,2-c:4',5'-e]pyrimidine] | > 199 | 44.6 |  | 
6 | C1=Nc2c(ncn2-c2ccccc2)C2=N[C@H](Cc3ccccc3)CN12 [Compound 6, (R)-7,8-dihydro-3-phenyl-8-(phenylmethyl)-3H-diimidazo[1,2-c:4',5'-e]pyrimidine] | 100 | 8.4 |  | 
7 | CCCOC1=Nc2c(cnn2-c2ccccc2)C2=N[C@H](C)[C@@H](c3ccccc3)N12 [Compound 7, (2R-trans)-2,7-dihydro-2-methyl-3,7-diphenyl-5-propoxy-3H-imidazo[1,2-c]pyrazolo[4,3-e]pyrimidine] | 14.2 | 12.1 |  | 
8 | C1=Nc2nc[nH]c2C2=N[C@H](Cc3ccccc3)CN12 [Compound 9, (R)-7,8-dihydro-8-(phenylmethyl)-1H-diimidazo[1,2-c:4',5'-e]pyrimidine] | > 199 | 199 |  | 
9 | C1=Nc2nc[nH]c2C2=N[C@@H](Cc3ccccc3)CN12 [Compound 10, (S)-7,8-dihydro-8-(phenylmethyl)-1H-diimidazo[1,2-c:4',5'-e]pyrimidine] | > 199 | 199 |  | 
10 | OC[C@H]1O[C@@H](n2cnc3c2N=CN2C[C@H](Cc4ccccc4)N=C32)[C@H](O)[C@@H]1O [Compound 13, (S)-7,8-dihydro-3-(β-D-ribofuranosyl)-8-(phenylmethyl)-3H-diimidazo[1,2-c:4',5'-e]pyrimidine] | 10.6 | 4.5 |  | 
11 | OC[C@H]1O[C@@H](n2cnc3c2N=CN2C[C@@H](Cc4ccccc4)N=C32)[C@H](O)[C@@H]1O [Compound 14, (R)-7,8-dihydro-3-(β-D-ribofuranosyl)-8-(phenylmethyl)-3H-diimidazo[1,2-c:4',5'-e]pyrimidine] | 46.8 | 65 |  | 
12 | CCCn1c(=O)c2[nH]c(-c3ccc(OCC(=O)NCCN)cc3)nc2n(CCC)c1=O [XAC] |  |  | 0.049 ± 0.017 | much more potent in antagonizing the effects of adenosine analogs on heart rate than on blood pressure
13 | CCCn1c(=O)c2[nH]c(-c3ccc(OCC(=O)O)cc3)nc2n(CCC)c1=O [XCC] |  |  | 0.034 ± 0.013 | 
